Earlier results in patent US11110072B2, “Broad spectrum pharmacological composition for treatment of various infections and diseases and methods of use” (Greyfer Innova Pharma, LLC, priority 2013, dated 2021).

Assays:
[1] = after oral administration
[2] = even at high concentrations

Q: Which “excreted unchanged in urine” value [1] does the source give for `O=C(O)CC(O)(CC(=O)O)C(=O)O` [Citric acid, 2-hydroxytricarboxylic acid] here?
A: less than 1%

Q: What about the “effect in contact with skin” value [2] of the same compound?
A: not injurious in contact with skin
